From patent publication US12193994B2, “Combination of a cell therapy and a gamma secretase inhibitor” (Juno Therapeutics, Inc., priority 2017, dated 2025)
pIC50: −log10 of the molar value.

What was measured:
[1] = tested on: OPM2 or RPMI-8226 target cells; assay: Cytokine production by anti-BCMA CAR-T cells co-cultured with target cells +/- LY3039478; type: cell-based, human; details: 24 hours co-culture, vs absence of LY3039478
Protocol: (§1) The production of cytokines by anti-BCMA CAR-T cells in the presence or absence of LY3039478 was assessed by monitoring cytokine levels in the supernatants of co-cultures of CAR-T cells with BCMA-expressing target cells. CAR-T cells generated as described in this Example above were cultured with either OPM2 or RPMI-8226 target cells in the absence of LY3039478 or in the presence of LY3039478 at concentrations of 0.1 nM, 1 nM, 10 nM, 100 nM, 1000 nM, 10000 nM or 100000 nM (the range covering the estimated human pharmacokinetic range is shown by the boxes in FIGS. 3A-3D). Culture supernatants were harvested after 24 hours, and IFNγ and IL-2 were measured from the culture supernatants.

[2] = tested on: RPMI-8226 human multiple myeloma xenograft; type: in vivo
Protocol: Anti-tumor effects following administration of anti-BCMA CAR T cells and a gamma secretase inhibitor compound, LY3039478, each, individually, and in combination, were assessed in a RPMI-8226 human multiple myeloma xenograft mouse model. The anti-BCMA CAR-expressing T cells were generated as described in Example 2.
NOD.Cg.PrkdescidIL2rgtm1 Wjl/SzJ (NSG) mice were injected subcutaneously (s.c.) with 1E+07 RPMI-8226 cells modified to express GFP and firefly luciferase (RPMI-8226 ffluc), and tumor volume was allowed to increase over the course of 25 days, the 25th day being designated “day 0” in this study. Animals were divided into 8 groups, and each group received one of the following treatments: (1) vehicle only, (2) LY3039478 (3 mg/kg) only, (3) Mock T cells (not expressing the CAR) (3.00E+06 T cells per mouse) and vehicle, (4) Mock T cells (3.00E+06 T cells per mouse) and LY3039478 (3 mg/kg), (5) anti-BCMA CAR+ T cells (1.00E+06 CAR+ cells per mouse) and vehicle, (6) anti-BCMA CAR+ T cells (1.00E+06 CAR+ cells per mouse) and LY3039478 (3 mg/kg), (7) anti-BCMA CAR+ T cells (3.00E+06 CAR+ cells per mouse) and vehicle, or (8) anti-BCMA CAR+ T cells (3.00E+06 CAR+ cells per mouse) and LY3039478 (3 mg/kg). In each group, LY3039478 or vehicle was delivered by mouth (p.o.) at day-1 and at day zero (0) and every other day (e.o.d.) up to day 21. Where applicable, T cells were administered by a single intravenous (i.v.) injection on day 0.
CAR+ T cells in blood and in tumor were assessed on days 7, […], 21, and 28 by flow cytometry using antibodies specific for cell surface markers and a reagent specific to the anti-BCMA CAR. Animal survival was monitored throughout the study.
The presence of CAR+ T cells in the blood was monitored over the course of the study (from blood drawn on days 7, 14, 21 and 28 post CAR-T cell administration). White blood cells from blood samples were stained with various reagents to detect various markers on the surface of immune cells, including T cells, and expression of the CAR (including a reagent specific for the CAR and a reagent specific for a transduction marker encoded by the CAR vector).
Tumor digests were also analyzed to determine the number of CD4+ and CD8+ CAR+ T cells in tumors following the various treatment conditions. […] Serum BCMA was also assessed according to treatment condition.

[3] = tested on: OPM2 target cells; assay: Similar study: concentration dependence of cytokine production by anti-BCMA CAR-T cells; type: cell-based; details: Homo sapiens, OPM-2; OPM2, one exemplary donor, IFN-gamma (FIG. 3E); read-out: increasing cytokine production by anti-BCMA CAR-T cells, IC50
Protocol: as §1
A similar study was carried out to further assess the effects of different concentrations of LY3039478, including concentrations within the estimated Cmax/Cmin for the inhibitor, on the ability of anti-BCMA CAR-T cells generated as described in this Example 2 above to produce cytokines following co-culture with OPM2 target cells.

[4] = tested on: MM1S cells; assay: Serial restimulation of anti-BCMA CAR+ T cells with irradiated target cells: expansion and cytokines; type: cell-based, human; details: 0.001 μM and 1.0 μM
Description: The ability of CAR T cells to expand ex vivo following repeated rounds of antigen stimulation can correlate with in vivo function and/or capacity of the cells to persist in in vivo (e.g., following administration and initial activation in response to encounter with antigen) (Zhao et al. (2015) Cancer Cell, 28:415-28). To assess the effect of the exemplary gamma secretase inhibitor on CAR-T cell activity after serial restimulation, anti-BCMA CAR+ T cells were generated as described above in Example 2, and irradiated BCMA-expressing target cells (MM1S cells) were added at an effector-to-target (E:T) ratio of 1:2 in the presence of LY3039478 at two different concentrations, either 0.001 μM (a concentration around the IC50) or a higher concentration of 1.0 μM (approximately 3 times Cmax), or with vehicle only control. The assay was performed on a composition of anti-BCMA CAR+ T cells generated from T cells derived from a healthy donor or from a donor with multiple myeloma. Every 3-4 days, CAR-expressing T cells were harvested, counted and re-plated at the initial seeding density with fresh media containing new irradiated target cells at the same E:T ratio in the presence or absence of the same concentration of LY3039478. A total of 3-5 rounds of stimulation were carried out during a 10-14 day culture period. Effects of the inhibitor on T cell function were assessed by monitoring the cell number (FIGS. 4A and 4B) or cytokine production in harvested supernatant (FIG. 5A and FIG. 5B) at each round of stimulation.
The production of cytokines by anti-BCMA CAR-T cells upon restimulation with antigen-expressing cells in the presence or absence of LY3039478 was assessed after the first round of re-plating at day 4. Culture supernatants were harvested 24 hours after re-plating, and IFN-gamma, IL-2 and TNF-alpha were measured from the culture supernatants.

[5] = no CAR+ T cells, LY3039478 3 mg/kg p.o. alone or with Mock T cells 3.00E+06
[6] = 24 hours after re-plating at day 4, both donors

What does the source list for C[C@H](NC(=O)CCC(F)(F)F)C(=O)N[C@@H]1C(=O)N(CCO)c2ncccc2-c2ccccc21 [LY3039478, 4,4,4-trifluoro-N-[(1S)-2-[[(7S)-5-(2-hydroxyethyl)-6-oxo-7H-pyrido[2,3-d][3]benzazepin-7-yl]amino]-1-methyl-2-oxo-ethyl]butanamide]?
production of IFN-gamma in supernatant [1]: increased; production of IL-2 in supernatant [1]: increased; Day 65 Survival % [2, 5]: 0%; Median Survival [2, 5]: 22.5 days; Number of deaths [2, 5]: 10; surface BCMA MFI on RPMI-8226 tumor cells (tumor digests, flow cytometry) ([2]; presence of LY3039478, days 7 and 15): increased; peripheral blood count of CD4+ or CD8+ T cells that did not express the anti-BCMA CAR ([2]; treated with or without LY3039478): No changes; pIC50 [3]: 9.60 to 10.00; levels of IFN-gamma [4, 6]: Increased levels; levels of IL-2 [4, 6]: Increased levels; levels of TNF-alpha [4, 6]: Increased levels; expansion of anti-BCMA CAR T cells ([4]; E:T 1:2, 10-14 days, healthy and myeloma donor): increased expansion; detrimental effects on CAR-T cell function ([4]; serial restimulation): did not exhibit any detrimental effects
